# Test results as given in PubChem BioAssay (NCI).
#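 Protocol summary: plate cells (96-well), add compound at 5 concentrations, incubate 48 h, interpolate endpoints linearly. GI50: concentration for 50% inhibition of growth. TGI: total growth inhibition.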
# What was measured:
# Assay in all cases: DTP human tumour cell line panel, 48 h
# TK-10 renal = system: TK-10 renal
# SF-268 CNS = system: SF-268 CNS
# SK-OV-3 ovarian = system: SK-OV-3 ovarian
# NCI-H460 lung = system: NCI-H460 lung
# KM12 colon = system: KM12 colon
# SF-295 CNS = system: SF-295 CNS
# IGROV1 ovarian = system: IGROV1 ovarian
# UO-31 renal = system: UO-31 renal
# MCF7 breast = system: MCF7 breast
# BT-549 breast = system: BT-549 breast
compound,measurement,setting,value
CCCCCCCCCCCCCC1CCC(CC)N1 (centres undefined),TGI,TK-10 renal,32 µM
same,TGI,SF-268 CNS,22.4 µM
same,TGI,SK-OV-3 ovarian,30.7 µM
same,TGI,NCI-H460 lung,18.5 µM
same,TGI,KM12 colon,32.4 µM
same,TGI,SF-295 CNS,32.6 µM
same,TGI,IGROV1 ovarian,36.1 µM
same,TGI,UO-31 renal,27.4 µM
Cc1ccc(N(C(=O)CC(=O)NN)C(=O)c2ccccc2Cl)cc1,TGI,SF-268 CNS,> 100 µM
same,TGI,SK-OV-3 ovarian,> 100 µM
same,TGI,NCI-H460 lung,> 100 µM
same,TGI,KM12 colon,> 100 µM
same,TGI,SF-295 CNS,> 100 µM
same,TGI,IGROV1 ovarian,> 100 µM
same,TGI,UO-31 renal,> 100 µM
N.N.N.N.N.O=C([O-])c1nn[n-]n1.[Cl-].[Co+3],GI50,TK-10 renal,> 100 µM
same,TGI,TK-10 renal,> 100 µM
same,GI50,SF-268 CNS,> 100 µM
same,TGI,SF-268 CNS,> 100 µM
same,GI50,SK-OV-3 ovarian,> 100 µM
same,TGI,SK-OV-3 ovarian,> 100 µM
same,GI50,NCI-H460 lung,> 100 µM
same,TGI,NCI-H460 lung,> 100 µM
same,GI50,KM12 colon,> 100 µM
same,TGI,KM12 colon,> 100 µM
same,GI50,SF-295 CNS,> 100 µM
same,TGI,SF-295 CNS,> 100 µM
same,GI50,IGROV1 ovarian,> 100 µM
same,TGI,IGROV1 ovarian,> 100 µM
same,GI50,UO-31 renal,> 100 µM
same,TGI,UO-31 renal,> 100 µM
Cc1ccc(/C(=C/C=C(C#N)C#N)Sc2ccc(Cl)cc2)cc1,GI50,TK-10 renal,2.12 µM
same,TGI,TK-10 renal,7.31 µM
same,GI50,SF-268 CNS,9.8 µM
same,TGI,SF-268 CNS,35.7 µM
same,GI50,SK-OV-3 ovarian,16.4 µM
same,TGI,SK-OV-3 ovarian,36.1 µM
same,GI50,NCI-H460 lung,9.24 µM
same,TGI,NCI-H460 lung,29.7 µM
same,GI50,KM12 colon,5.5 µM
same,TGI,KM12 colon,26.7 µM
same,GI50,SF-295 CNS,4.07 µM
same,TGI,SF-295 CNS,16.8 µM
same,GI50,MCF7 breast,5.24 µM
same,TGI,MCF7 breast,> 100 µM
same,GI50,BT-549 breast,3.37 µM
same,TGI,BT-549 breast,9.16 µM
COc1cc2oc(-c3ccc(O)cc3)cc(=O)c2c(OC)c1OC,TGI,TK-10 renal,> 100 µM
same,TGI,SF-268 CNS,> 100 µM
same,TGI,NCI-H460 lung,> 100 µM
same,TGI,KM12 colon,> 100 µM
same,TGI,SF-295 CNS,> 100 µM
same,TGI,MCF7 breast,> 100 µM
same,TGI,BT-549 breast,> 100 µM
same,TGI,IGROV1 ovarian,> 100 µM
same,TGI,UO-31 renal,> 100 µM
CCOC(=O)c1c(CN2CCN(c3ccccc3)CC2)n(-c2ccccc2)c2cc(Br)c(O)cc12,GI50,TK-10 renal,25 µM
same,TGI,TK-10 renal,58.9 µM
same,GI50,SF-268 CNS,9.63 µM
same,TGI,SF-268 CNS,41.4 µM
same,GI50,SK-OV-3 ovarian,34 µM
same,TGI,SK-OV-3 ovarian,80.9 µM
same,GI50,NCI-H460 lung,3.61 µM
same,TGI,NCI-H460 lung,21.3 µM
same,GI50,KM12 colon,8.49 µM
same,TGI,KM12 colon,39.9 µM
same,GI50,SF-295 CNS,4.7 µM
same,TGI,SF-295 CNS,24.3 µM
same,GI50,MCF7 breast,4.01 µM
same,TGI,MCF7 breast,47.5 µM
same,GI50,BT-549 breast,8.64 µM
same,TGI,BT-549 breast,23.9 µM
same,GI50,UO-31 renal,8.99 µM
same,TGI,UO-31 renal,23.1 µM
COc1c2c(cc3nc4ccccc4nc13)CCC(C(C)(C)O)C2 (centres undefined),TGI,TK-10 renal,> 100 µM
same,TGI,SF-268 CNS,> 100 µM
same,TGI,SK-OV-3 ovarian,> 100 µM
same,TGI,NCI-H460 lung,> 100 µM
same,TGI,KM12 colon,> 100 µM
same,TGI,SF-295 CNS,> 100 µM
same,TGI,IGROV1 ovarian,> 100 µM
same,TGI,UO-31 renal,> 100 µM
Cn1cc(C(=O)c2ccccc2)ccc1=O,TGI,TK-10 renal,> 100 µM
same,TGI,SF-268 CNS,> 100 µM
same,TGI,SK-OV-3 ovarian,> 100 µM
same,TGI,NCI-H460 lung,> 100 µM
same,TGI,KM12 colon,> 100 µM
same,TGI,SF-295 CNS,> 100 µM
same,TGI,IGROV1 ovarian,> 100 µM
same,TGI,UO-31 renal,> 100 µM
Nc1ccc(/C=C/c2ccnc3ccccc23)cc1,TGI,TK-10 renal,57.7 µM
same,TGI,SF-268 CNS,47.5 µM
same,TGI,NCI-H460 lung,49.1 µM
same,TGI,KM12 colon,49.3 µM
same,TGI,SF-295 CNS,46.1 µM
same,TGI,IGROV1 ovarian,> 100 µM
same,TGI,UO-31 renal,47.5 µM
O=c1cccccc1NCCCNc1cccccc1=O,TGI,SF-268 CNS,> 100 µM
same,TGI,SK-OV-3 ovarian,> 100 µM
same,TGI,NCI-H460 lung,> 100 µM
same,TGI,KM12 colon,> 100 µM
same,TGI,SF-295 CNS,> 100 µM
same,TGI,IGROV1 ovarian,> 100 µM
same,TGI,UO-31 renal,> 100 µM
